Experimental data from PubChem BioAssay AID1963870 (Molecular Pharmacology Branch, DTP, NCI, 2024).

Tested on: 292921-168-R-J2-PDC KRAS tumor spheroid viability
Assay: Anticancer human tumor 292921-168-R-J2-PDC patient-derived pancreatic carcinoma cell line growth inhibition [KRAS2]
Settings: spheroids with HUVEC and MSC; for IC50: curve of first compound; for viability, T/C: stronger effect = lower value
Summary of the method: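 KRAS-mutant tumor cells were grown as spheroids with HUVEC endothelial cells and human MSCs as stroma. Targeted agents were tested alone and with KRAS pathway inhibitors. Doses started at or near clinical Cmax, or 10 microM, descending half-log.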

[1] = second compound 0.1 µM, first compound 0.0316 µM
[2] = second compound 0.1 µM, first compound 0.1 µM
[3] = second compound 0.1 µM, first compound 0.316 µM
[4] = second compound 0.1 µM, first compound 1 µM
[5] = second compound 0.1 µM, first compound 3.16 µM
[6] = second compound 0.1 µM, first compound 10 µM
[7] = second compound 0.316 µM, first compound 0.0316 µM
[8] = second compound 0.316 µM, first compound 0.1 µM
[9] = second compound 0.316 µM, first compound 0.316 µM
[10] = second compound 0.316 µM, first compound 1 µM
[11] = second compound 0.316 µM, first compound 3.16 µM
[12] = second compound 0.316 µM, first compound 10 µM
[13] = second compound 1 µM, first compound 0.0316 µM
[14] = second compound 1 µM, first compound 0.1 µM
[15] = second compound 1 µM, first compound 0.316 µM
[16] = second compound 1 µM, first compound 1 µM
[17] = second compound 1 µM, first compound 3.16 µM
[18] = second compound 1 µM, first compound 10 µM
[19] = second compound 3.16 µM, first compound 0.0316 µM
[20] = second compound 3.16 µM, first compound 0.1 µM
[21] = second compound 3.16 µM, first compound 0.316 µM
[22] = second compound 3.16 µM, first compound 1 µM
[23] = second compound 3.16 µM, first compound 3.16 µM
[24] = second compound 3.16 µM, first compound 10 µM
[25] = second compound 10 µM, first compound 0.0316 µM
[26] = second compound 10 µM, first compound 0.1 µM
[27] = second compound 10 µM, first compound 0.316 µM
[28] = second compound 10 µM, first compound 1 µM
[29] = second compound 10 µM, first compound 3.16 µM
[30] = second compound 10 µM, first compound 10 µM
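Note: drug exposure lasted seven days after spheroids formed for three days.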
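Throughout, for viability, T/C: percent of DMSO vehicle control viability which is 100%.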

Structure (SMILES)	IC50 (second compound 0.1 µM)	IC50 (second compound 0.316 µM)	IC50 (second compound 1 µM)	IC50 (second compound 3.16 µM)	viability, T/C [1]	viability, T/C [2]	viability, T/C [3]	viability, T/C [4]	viability, T/C [5]	viability, T/C [6]	viability, T/C [7]	viability, T/C [8]	viability, T/C [9]	viability, T/C [10]	viability, T/C [11]	viability, T/C [12]	viability, T/C [13]	viability, T/C [14]	viability, T/C [15]	viability, T/C [16]	also measured
CC1(C)CCC(CN2CCN(c3ccc(C(=O)NS(=O)(=O)c4ccc(NCC5CCOCC5)c([N+](=O)[O-])c4)c(Oc4cnc5[nH]ccc5c4)c3)CC2)=C(c2ccc(Cl)cc2)C1 + COc1cc2nc(C)nc(NC(C)c3cc(N)cc(C(F)(F)F)c3)c2cc1OC1CCOC1	2090 nM	2180 nM	1820 nM	1380 nM	105%	94.4%	91.9%	93.4%	25.6%	14.3%	88.9%	81%	88.9%	91.6%	32.1%	8.02%	84.1%	80.5%	83%	85.8%	IC50 (second compound 10 µM): < 31.6 nM; viability, T/C [17]: 19.5%; viability, T/C [18]: 8.25%; viability, T/C [19]: 70.8%; viability, T/C [20]: 70.6%; viability, T/C [21]: 73.2%; viability, T/C [22]: 63.4%; viability, T/C [23]: 15.6%; viability, T/C [24]: 8.28%; viability, T/C [25]: 36.8%; viability, T/C [26]: 31%; viability, T/C [27]: 33.6%; viability, T/C [28]: 27.3%; viability, T/C [29]: 7.17%; viability, T/C [30]: 6.32%
CC1OCC2(CCN(c3cnc(Sc4ccnc(N)c4Cl)c(N)n3)CC2)C1N (stereo not given) + C=CC(=O)N1CCN(c2nc(=O)n(-c3c(C)ccnc3C(C)C)c3nc(-c4c(O)cccc4F)c(F)cc23)C(C)C1	1140 nM	1920 nM	2060 nM	218 nM	96.8%	83.1%	64.5%	51%	42%	33.4%	108%	82.5%	69.2%	59.9%	45.6%	34.2%	104%	89.9%	73.5%	55.5%	IC50 (second compound 10 µM): < 31.6 nM; viability, T/C [17]: 46.6%; viability, T/C [18]: 41.1%; viability, T/C [19]: 65.2%; viability, T/C [20]: 57.6%; viability, T/C [21]: 45.9%; viability, T/C [22]: 39%; viability, T/C [23]: 36.7%; viability, T/C [24]: 29.6%; viability, T/C [25]: 17.8%; viability, T/C [26]: 15.9%; viability, T/C [27]: 16.3%; viability, T/C [28]: 15.5%; viability, T/C [29]: 15.1%; viability, T/C [30]: 14.4%
CC1OCC2(CCN(c3cnc(Sc4ccnc(N)c4Cl)c(N)n3)CC2)C1N (stereo not given) + C=CC(=O)N1CCN(c2nc(OCC3CCCN3C)nc3c2CCN(c2cccc4cccc(C)c24)C3)CC1CC#N	227 nM	94.6 nM	< 31.6 nM	< 31.6 nM	82.9%	61.2%	43.8%	36.9%	37.6%	26.8%	66.1%	47.8%	37.4%	37.3%	27.5%	25.3%	20.5%	18.6%	16.4%	17.4%	IC50 (second compound 0.0316 µM): 384 nM; viability, T/C (second compound 0.0316 µM, first compound 0.0316 µM): 92.1%; viability, T/C (second compound 0.0316 µM, first compound 0.1 µM): 68%; viability, T/C (second compound 0.0316 µM, first compound 0.316 µM): 48.8%; viability, T/C (second compound 0.0316 µM, first compound 1 µM): 45.6%; viability, T/C (second compound 0.0316 µM, first compound 3.16 µM): 32.9%; viability, T/C (second compound 0.0316 µM, first compound 10 µM): 28.4%; viability, T/C [17]: 16.1%; viability, T/C [18]: 15.8%; viability, T/C [19]: 0.11%; viability, T/C [20]: 0.11%; viability, T/C [21]: 0.11%; viability, T/C [22]: 0.1%; viability, T/C [23]: 0.11%; viability, T/C [24]: 0.17%
